These results are taken from PubChem BioAssay AID1850 (Southern Research Specialized Biocontainment Screening …, 2009).

“And” between values parts separate entries of the source, which are not always exact repeats. Identical values can stand only once.

A word on the IC50: it is the concentration that gives 50% inhibition.

The test system of this test is Salmonella Typhi PhoP-promoter GFP reporter, fluorescence, 4 h. Briefly: PhoP regulon inhibitors, Salmonella typhi PhoP promoter GFP reporter, confirmatory (AID 1850).

Take `C#CCOCCOCCOCCNc1nc(N2CCN(C(=O)[C@H](Cc3cc4ccccc4[nH]3)n3cc([C@@H](N)C(C)CC)nn3)CC2)nc(N2CCN(C(=O)[C@H](Cc3cc4ccccc4[nH]3)n3cc([C@@H](N)CC(C)C)nn3)CC2)n1` (some centres undefined): the half-inhibitory concentration (IC50) is 70 µM.

Turning to `O=[N+]([O-])c1ccc(/C=[N+](\[O-])CCO)o1`, the IC50 is 60.3 µM.

As for `CN1CCc2c(sc(NC(=O)c3ccc([N+](=O)[O-])o3)c2C(N)=O)C1`, the IC50 was 18.7 µM.

Regarding `COc1cc([N+](=O)[O-])cc(/C=N/NC(=O)CSc2ccccn2)c1O`, the IC50 was 127 µM.

As for `CCCCOc1ccc(CSC(=N)N)cc1Cl`, the half-maximal inhibitory concentration (IC50) is 77.7 µM.

In the case of `Clc1ccc(CN2CCc3c([nH]c4ccccc34)C2)cc1Cl`, the 50% inhibitory concentration (IC50) is 36.1 µM.

`Cc1ccccc1Nc1cc(C)c2c(O)cccc2n1`: the IC50 is 6.42 µM.

Consider `Cc1cc(N/N=C/c2ccc(O)cc2)c2cccc(C)c2n1`, for which the IC50 was 39.9 µM.

Consider `Cc1ccc(C(C[N+](=O)[O-])Sc2ccc(N)cc2)cc1` (centres undefined), for which the IC50 is 55.1 µM.

For `CN(C)CCNc1oc(COc2ccc(-c3ccccc3)cc2)nc1C#N`, the IC50 was 59.2 µM.

Turning to `CC(C)[C@@H]1CC[C@@H](C)C[C@H]1OC(=O)C[n+]1cc(-c2ccc(Cl)cc2)n2c1CCCCC2`, the IC50 was 67.2 µM.

As for `CCC(=O)N1CCN(c2cc3c(cc2F)c(=O)c(C(=O)O)cn3CC)CC1`, the half-maximal inhibitory concentration (IC50) was 52.3 µM.

For `OCCNc1nc(Nc2ccc(Br)cc2)nc2ccccc12`, the IC50 was 6.86 µM.

With `Cc1ccc(-c2cc(-c3ccc(C)cc3)[n+](-c3ccccc3)c(-c3ccc(C)cc3)c2)cc1`, the IC50 is 35 µM.

Regarding `O=c1c2ccccc2[nH]c2ccccc12`, the 50% inhibitory concentration (IC50) was 36.2 µM.

Take `C#CCOCCOCCOCCNc1nc(N2CCN(C(=O)CCCCCCCCCCNC(=O)[C@H](CO)n3cc(CCCCCN)nn3)CC2)nc(N2CCN(C(=O)CCCCCCCCCCNC(=O)[C@H](CCCN=C(N)N)n3cc(C[C@@H](C)CC)nn3)CC2)n1`: the IC50 was 24.3 µM.

On to `Oc1ccc(COCc2ccccc2)c2cccnc12`, for which the IC50 is 37.1 µM.

Consider `O=C(Nc1nnc(-c2ccco2)o1)c1cccc(Cl)c1`, for which the half-inhibitory concentration (IC50) is 36.9 µM.

As for `Oc1c(Br)cc(Br)cc1C=NCc1ccccc1`, the IC50 was 86.6 µM.

On to `Nc1c2ccccc2nc2ccccc12`, for which the IC50 was 36.8 µM.

As to `CN(C)c1ccc(Nc2nc(N)c3ccccc3n2)cc1`, the IC50 was 30.9 µM.

Regarding `C[C@H]1O[C@@H](n2cc(F)c(=O)[nH]c2=O)[C@H](O)[C@@H]1O`, the IC50 is 32.2 µM.

Regarding `O=C(COc1ccc(Br)cc1CNCCc1ccccc1)NCc1ccccc1`, the IC50 was 106 µM.

In the case of `CCCCC(CC)CN=C(N)NC(N)=NCCCCCCN=C(N)NC(N)=NCC(CC)CCCC` (centres undefined), the concentration for half-maximal inhibition (IC50) is 2.73 µM.

Turning to `CC1CC(C)CN(CCOc2ccc(Cl)cc2Cl)C1` (centres undefined), the half-maximal inhibitory concentration (IC50) was 113 µM.

For the compound `O=c1cc(-c2ccccc2)cc(-c2ccccc2)n1O`, the IC50 was 19.2 µM.

With `CSc1ccc2c(c1)C(N1CCN(C)CC1)Cc1ccc(F)cc1S2` (centres undefined), the IC50 was 36.8 µM.

For the compound `O=C(N/N=C/c1cc(Cl)cc(Cl)c1O)c1ccncc1`, the concentration for half-maximal inhibition (IC50) is 35.2 µM.

On to `Cc1cccc(Nc2cc(C)c3c(O)cccc3n2)c1C`, for which the half-inhibitory concentration (IC50) is 17.4 µM.

As to `O=C1c2cccc3cccc(c23)C(=O)C1(O)O`, the half-inhibitory concentration (IC50) is 48.4 µM.

`CCCCCCCCCn1c2c(c(=N)c3c1CCC3)CCC2`: the IC50 is 17.4 µM.

For `CCS(=O)(=O)c1ccc2oc(=O)c(/C=C(\O)c3ccc(Cl)cc3)nc2c1`, the IC50 is 76.1 µM.

On to `CCCCCCCCCCOC(=O)Cn1c(COc2ccc(Cl)cc2)[n+](C)c2ccccc21`, for which the 50% inhibitory concentration (IC50) was 10.3 µM.

Consider `C[C@H]1COc2c(N3CCN(C)CC3)c(F)cc3c(=O)c(C(=O)O)cn1c23`, for which the concentration for half-maximal inhibition (IC50) was under 0.23 µM.

Take `Cc1ccc(NC(=O)COc2ccccc2CNC(C)(C)CC(C)(C)C)cc1`: the 50% inhibitory concentration (IC50) is 91.6 µM.

For the compound `Cc1ccc(-c2csc(NC(=O)C[n+]3cc(-c4ccc(C)cc4)n4c3CCC4)n2)cc1`, the half-maximal inhibitory concentration (IC50) is 25 µM.

For the compound `C=CC1=C(C(=O)O)N2C(=O)[C@@H](NC(=O)/C(=N/OCC(=O)O)c3csc(N)n3)[C@H]2SC1`, the concentration for half-maximal inhibition (IC50) was 17.3 µM.

`Oc1cccc2ccc(Nc3ccccn3)nc12`: the IC50 is 9.36 µM.

On to `Nc1nc(Nc2ccccc2)nc2ccccc12`, for which the half-maximal inhibitory concentration (IC50) was 34.4 µM.

Take `CC1CC(=O)c2c(cc3c(-c4c(O)cc(O)c5c(O)c6c(cc45)OC(C)CC6=O)c(O)cc(O)c3c2O)O1` (centres undefined): the 50% inhibitory concentration (IC50) is 27.3 µM.

Take `COc1ccc(C(=O)NC(=S)NNC(=O)c2cccc(C)c2)cc1`: the half-maximal inhibitory concentration (IC50) was 61.4 µM.

For the compound `Clc1c(OCCCn2ccnc2)ccc2ccccc12`, the IC50 is 39.7 µM.

In the case of `Oc1ccc(/C=N/Nc2nccnc2Cl)c(O)c1`, the half-maximal inhibitory concentration (IC50) is 70.4 µM.

As to `O=C1CSC(=S)N1c1cccc(O)c1`, the concentration for half-maximal inhibition (IC50) was 126 µM.

Consider `OC(CN1CCCCC1)Cn1c2ccccc2c2cc(Br)ccc21` (centres undefined), for which the concentration for half-maximal inhibition (IC50) was 69.7 µM.

On to `O=[N+]([O-])c1cc([N+](=O)[O-])c2cccnc2c1Oc1ccccc1O`, for which the IC50 was 81.3 µM.

In the case of `Nc1cc(Cl)c2nonc2c1[N+](=O)[O-]`, the IC50 was 38.4 µM.

In the case of `COc1ccc(C(=O)NC(=S)NNC(=O)c2cnccn2)cc1`, the IC50 was 92.4 µM.

As to `S=C(NCc1ccc(Cl)cc1)Nc1ccncc1`, the concentration for half-maximal inhibition (IC50) is 19.1 µM.

As to `COc1ccc(/C=C/c2cc(-c3ccc(C)cc3)o[n+]2C)cc1`, the concentration for half-maximal inhibition (IC50) is 37.2 µM.

For the compound `Cc1cc(/C=C\c2ccc3cc(N(C)C)ccc3[n+]2C)c(C)n1-c1ccccc1`, the IC50 was 27.8 µM.

On to `C[C@H]1c2cccc(O)c2C(O)=C2C(=O)[C@]3(O)C(O)=C(C(N)=O)C(=O)[C@@H](N(C)C)[C@@H]3[C@@H](O)[C@@H]21`, for which the IC50 is 3.98 µM.

For `Nc1nonc1-n1nnc(C(=O)N/N=C/c2cc(Br)ccc2O)c1CSC1=NCCS1`, the IC50 is 105 µM.

For the compound `CCCCCCCC(=O)N/N=C/c1ccc([N+](=O)[O-])o1`, the IC50 is 26.7 µM.

Turning to `O=[N+]([O-])c1cc(Cl)cc(/C=N/NC(=S)Nc2ccc(S(=O)(=O)N3CCOCC3)cc2)c1O`, the half-inhibitory concentration (IC50) was 80.3 µM.

Regarding `CCCOc1ccc(C(=O)NNC(=S)NC(=O)CC)cc1`, the concentration for half-maximal inhibition (IC50) is 47.7 µM.

Consider `CCC[C@H](CN[C@@H](CNC)[C@H](C)CC)NCCc1cc(C(F)(F)F)cc(C(F)(F)F)c1`, for which the 50% inhibitory concentration (IC50) was 34.6 µM.

Consider `CCCCCCCCCCCCCCCC[n+]1ccc(/C=N/O)cc1`, for which the concentration for half-maximal inhibition (IC50) is 26.2 µM.

For `NC1=NC2(CCCCC2)N=C(Nc2ccc(Br)cc2)N1`, the half-inhibitory concentration (IC50) was 12.7 µM.

As to `Cc1ccc(-c2c[n+](CC(=O)Nc3nc(-c4ccccc4)cs3)c3n2CCC3)cc1`, the IC50 is 22.1 µM.

Take `CN(C)CC/C=C1\c2ccccc2Sc2cc(F)c(Cl)cc21`: the concentration for half-maximal inhibition (IC50) was 26.5 µM.

With `O=[N+]([O-])c1cc(O)c2ncccc2c1`, the IC50 is 14.2 µM.

In the case of `O=C(/C=C/c1cc(Br)ccc1O)c1ccco1`, the IC50 is 83.9 µM.

As to `CCn1cc(C(=O)NCCCN(C)C)c(=O)c2cc(F)c(N3CCN(C)CC3)cc21`, the 50% inhibitory concentration (IC50) is 20.4 µM.

Regarding `NC(=O)SCC(=O)Nc1cccc(Cl)c1`, the IC50 was 9.08 µM.

As to `O=C(Nc1cccc([N+](=O)[O-])c1)Nc1cccs1`, the IC50 is 24.7 µM.

Take `CCCCCN=C(N)N/N=C/c1c[nH]c2ccc(OC)cc12`: the concentration for half-maximal inhibition (IC50) was 38 µM.

For `Cc1ccc(-c2[nH]ncc2/C=N/n2c(C)nc3ccccc3c2=O)cc1`, the concentration for half-maximal inhibition (IC50) was 149 µM.

Take `Cc1nonc1C(=O)N/N=C/c1ccc(O)cc1O`: the half-inhibitory concentration (IC50) is 33.4 µM.

With `O=C(c1cccs1)c1no[n+]([O-])c1C(=O)c1cccs1`, the IC50 is 28.4 µM.

Consider `N=c1c2c(n(Cc3cccc(Cl)c3)c3c1CCC3)CCCC2`, for which the concentration for half-maximal inhibition (IC50) is 64.2 µM.

As to `O=[N+]([O-])/C=C/c1cc2ccccc2[nH]1`, the IC50 is 95 µM.

Consider `CC/C(=N\Nc1ccnc2cc(Cl)ccc12)c1ccc(O)cc1`, for which the concentration for half-maximal inhibition (IC50) is 50.9 µM.

`CN1/C(=C\C=C\C2=[N+](C)c3ccc4ccccc4c3C2(C)C)C(C)(C)c2ccccc21`: the IC50 is 5.78 µM.

In the case of `O=C(N/N=C/c1cc([N+](=O)[O-])ccc1O)C(O)(c1ccccc1)c1ccccc1`, the IC50 was 73.4 µM.

For the compound `CC(NCc1ccc(Cl)c(Cl)c1)C(O)c1ccccc1` (centres undefined), the IC50 is 61.6 µM.

On to `CN1CCN(/N=C/c2c3ccccc3c(Cl)c3ccccc23)CC1`, for which the IC50 is 74.6 µM.

Turning to `CN(C)CCCN(C(=O)c1ccc2c(c1)CCCC2)c1nc2ccc(Cl)cc2s1`, the IC50 was 83.7 µM.

With `Fc1ccc(Nc2ccnc(Nc3ccc(F)cc3)n2)cc1`, the concentration for half-maximal inhibition (IC50) was 20 µM.

With `COc1ccc(Nc2nc(NCC3CCCO3)c3ccccc3n2)c(OC)c1` (centres undefined), the IC50 was 37 µM.

Consider `Cc1cc(C)n(-c2nc(NCCN(C)C)c3c4c(sc3n2)CCCC4)n1`, for which the IC50 was 45.3 µM.

For `O=C(N/N=C/c1cc([N+](=O)[O-])ccc1O)C1CC1`, the half-maximal inhibitory concentration (IC50) was 29.5 µM.

For the compound `Cc1ccc2c(c1)N/C(=C(\C=C(/Cl)[N+](=O)[O-])[N+](=O)[O-])N2`, the 50% inhibitory concentration (IC50) is 99.7 µM.

For `Cc1ccc2nc(/C(C#N)=C\c3ccc([N+](=O)[O-])o3)[nH]c2c1`, the IC50 was 99.1 µM.

As for `Cc1ccccc1C(=O)N/N=C/c1ccc([N+](=O)[O-])s1`, the IC50 was 35.5 µM.

Consider `O=S1(=O)CC=C(CSC(=S)NC2CCS(=O)(=O)C2)C1` (centres undefined), for which the half-maximal inhibitory concentration (IC50) is 78.4 µM.

Consider `CN(C)CCN(C(=O)C1=COCCO1)c1nc2ccc(Cl)cc2s1`, for which the half-maximal inhibitory concentration (IC50) was 135 µM.

`O=C(NC(=S)NNC(=O)c1cnccn1)c1ccc(F)cc1`: the half-inhibitory concentration (IC50) is 36.1 µM.

As for `NC1=NC[C@@H](Cc2ccc(O)cc2)N1CCCCC1CCCCC1`, the IC50 was 13.7 µM.

For `C1=C(CCNc2ncnc3c2[nH]c2ccccc23)CCCC1`, the IC50 was 30.7 µM.

`CCCCCCCCCCOC(=O)Cn1c(COc2ccc(OC)cc2)[n+](C)c2ccccc21`: the IC50 is 22.7 µM and 14.4 µM.

Consider `CCCCCCCCNc1ncnc2ccccc12`, for which the IC50 is 18.7 µM.

Turning to `O=C(Nc1nnc(-c2cccs2)o1)c1cccc(Oc2ccccc2)c1`, the IC50 is 61.1 µM.

With `Cc1cc(C)n2nc(S(=O)(=O)Nc3c(Cl)cccc3Cl)nc2n1`, the IC50 was 63.5 µM.

For the compound `O=C(/C=C/c1ccc(F)cc1)NC(=S)NNC(=O)c1cnccn1`, the IC50 is 28.6 µM.

For `CCCc1nnc(NC(=O)c2cn(CC)c3cc(N4CCN(C)CC4)c(F)cc3c2=O)s1`, the IC50 was 66.8 µM.

As to `c1ccc2cc3c(NCCN4CCOCC4)ccnc3cc2c1`, the 50% inhibitory concentration (IC50) was 77.1 µM.

On to `CCCCCOc1ccc(C)cc1CN(CCCl)CCCl`, for which the half-inhibitory concentration (IC50) is 30.4 µM.

As for `Clc1ccc(C(c2ccc(Cl)cc2)n2cc[n+](CC(OCc3ccc(Cl)cc3Cl)c3ccc(Cl)cc3Cl)c2)cc1` (centres undefined), the IC50 is 10.5 µM.
